Results reported in patent US4181729A, “Phenyl or phenoxy substituted spiro-imidazolidinedione derivatives” (Pfizer Inc., priority 1979, dated 1980).

Tests used:
aldose reductase = biological target: T1, aldose reductase (Bos taurus, UniProt P16116); assay: Aldose reductase inhibitory activity; type: biochemical, calf lens (partially purified enzyme); conditions: partially purified aldose reductase from calf lens; read-out: 50% Inhibitory Concentration
T1 construct: partially purified aldose reductase enzyme obtained from calf lens; from tissue; host or cells: calf lens
Description: The derivatives prepared in Examples 1-6 were tested for their ability to reduce or inhibit aldose reductase enzyme activity, following the procedure described in U.S. Pat. No. 3,821,383 and based on the procedure of Hayman et. al., Journal of Biological Chemistry, 240, 877 (1965). The substrate employed was partially purified aldose reductase enzyme obtained from calf lens. The drug was tested to determine the concentration that would cause 50 percent inhibition of enzyme activity.

[1] = test system: sorbitol accumulation in the sciatic nerve; assay: Inhibition of sorbitol accumulation in the sciatic nerve of streptozotocinized (diabetic) rats; type: in vivo; conditions: oral at 4, 8 and 24 h after streptozotocin, rat sciatic nerve, 27 h after induction of diabetes
Description: Some of the Examples of derivatives prepared above were also tested for their ability to reduce or inhibit sorbitol accumulation in the sciatic nerve of streptozotocinized (i.e., diabetic) rats essentially by the procedure described in U.S. Pat. No. 3,821,383. In the present study, the amount of sorbitol accumulation in the sciatic nerves was measured 27 hours after induction of diabetes. The compounds were administered orally at the dose level indicated at 4, 8 and 24 hours following the administration of streptozotocin. The results obtained in this manner are presented in terms of percent inhibition (%) afforded by the test compound compared to the control where no compound was administered (i.e., the untreated animal where sorbitol levels normally rise from approximately […] tissue to as high as […] tissue in the 27-hour test period).

SMILES | IC50 (aldose reductase) [µM] | % Inhibition (sorbitol accumulation) ([1]; 10 mg./kg. t.i.d.) [%] | % Inhibition (sorbitol accumulation) ([1]; 1.5 mg./kg. t.i.d.) [%] | % Inhibition (sorbitol accumulation) ([1]; 25 mg./kg. t.i.d.) [%]
O=C1NC(=O)C2(CCOc3c(-c4ccccc4)cccc32)N1 (stereo not shown) [Example 4, 8'-phenyl-spiro[imidazolidine-4,4'-chroman]-2,5-dione] | 1 | 54 |  | 
O=C1NC(=O)C2(CCOc3ccc(Oc4ccccc4)cc32)N1 (stereo not shown) [Example 5, 6'-phenoxy-spiro[imidazolidine-4,4'-chroman]-2,5-dione] | 10 |  | 0 | 
O=C1NC(=O)C2(N1)c1ccccc1CCC2c1ccccc1 (stereo not shown) [Example 1, 1',2',3',4'-tetrahydro-3'-phenyl-spiro[imidazolidine-4,4'-naphthalene]-2,5-dione] | > 100 |  |  | 18
O=C1NC(=O)C2(CCC(c3ccccc3)c3ccccc32)N1 (stereo not shown) [Example 2, 1',2',3',4'-tetrahydro-1'-phenyl-spiro[imidazolidine-4,4'-naphthalene]-2,5-dione] | 100 |  |  | 27
O=C1NC(=O)C2(CCOc3ccc(-c4ccccc4)cc32)N1 (stereo not shown) [Example 3, 6'-phenyl-spiro[imidazolidine-4,4'-chroman]-2,5-dione] |  |  | 0 | 
O=C1NC(=O)C2(CCOc3c(Cl)cc(-c4ccccc4)cc32)N1 (stereo not shown) [Example 6, 8'-chloro-6'-phenyl-spiro[imidazolidine-4,4'-chroman]-2,5-dione] | 10 |  |  | 
